Laboratory results taken from patent US11733243B2, “Use of acamprosate to modulate ERK1/2 activation in animal models for FXS and ASD and individuals diagnosed with FXS and ASD” (Indiana University Research and Technology Corporation, priority 2013, dated 2023).
Entries after “also recorded” stand apart in the source; their conditions may differ.

Experiments:
subjects with FXS = details: cited from earlier work
fmr1 knockout mice = details: mouse, in vivo; cited from earlier work
males with FXS = details: cited from earlier work
mGluR5 = target: T1, mGluR5 (Mus musculus, UniProt Q3UVX5); details: in vivo; cited from earlier work
T1 construct: host or cells: fmr1 knockout mouse, in vivo
T1 sequence (Q3UVX5 19-1203): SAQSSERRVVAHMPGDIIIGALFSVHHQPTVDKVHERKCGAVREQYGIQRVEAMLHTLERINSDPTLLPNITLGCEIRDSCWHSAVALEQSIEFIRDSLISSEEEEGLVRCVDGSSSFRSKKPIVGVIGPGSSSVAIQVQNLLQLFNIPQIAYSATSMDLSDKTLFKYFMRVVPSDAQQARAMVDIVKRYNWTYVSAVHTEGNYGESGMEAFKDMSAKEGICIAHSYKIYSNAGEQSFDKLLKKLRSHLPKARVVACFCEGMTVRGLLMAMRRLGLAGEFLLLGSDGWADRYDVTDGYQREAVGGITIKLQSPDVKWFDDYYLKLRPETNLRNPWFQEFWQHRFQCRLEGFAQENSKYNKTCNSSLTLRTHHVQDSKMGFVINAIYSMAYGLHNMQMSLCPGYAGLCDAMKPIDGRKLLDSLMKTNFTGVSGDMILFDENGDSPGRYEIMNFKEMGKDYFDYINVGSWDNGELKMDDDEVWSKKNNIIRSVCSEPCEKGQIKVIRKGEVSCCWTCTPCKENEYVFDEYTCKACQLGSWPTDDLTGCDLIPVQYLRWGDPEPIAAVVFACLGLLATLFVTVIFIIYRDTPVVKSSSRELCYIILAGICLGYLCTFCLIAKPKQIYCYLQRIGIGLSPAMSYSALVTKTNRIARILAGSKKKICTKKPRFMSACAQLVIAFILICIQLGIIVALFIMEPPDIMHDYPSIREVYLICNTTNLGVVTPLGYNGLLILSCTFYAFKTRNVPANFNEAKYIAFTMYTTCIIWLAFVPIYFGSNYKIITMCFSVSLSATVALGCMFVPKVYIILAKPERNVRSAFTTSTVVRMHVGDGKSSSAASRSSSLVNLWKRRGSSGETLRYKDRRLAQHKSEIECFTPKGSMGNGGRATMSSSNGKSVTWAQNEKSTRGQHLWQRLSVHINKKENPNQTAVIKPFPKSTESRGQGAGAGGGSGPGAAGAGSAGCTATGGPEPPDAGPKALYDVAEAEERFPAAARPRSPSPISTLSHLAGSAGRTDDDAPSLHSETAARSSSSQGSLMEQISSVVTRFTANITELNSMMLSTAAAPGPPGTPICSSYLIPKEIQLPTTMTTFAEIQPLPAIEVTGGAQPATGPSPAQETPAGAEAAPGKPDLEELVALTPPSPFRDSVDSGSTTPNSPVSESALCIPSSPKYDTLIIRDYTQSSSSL

[1] = test system: alcohol withdrawal associated anxiety; details: in vivo; cited from earlier work
alcohol intake = details: mouse, in vivo; cited from earlier work
ERK/MAPK = assay: ICC of fixed lymphocytes for ERK/MAPK activity (anti-phospho-Thr202/Tyr204); assay type: cell-based, human; details: tamoxifen, 10 mM
Procedure: Lymphocyte samples were prepared from patient's blood and plated onto a PDL-coated 24-well plate. Cells were fixed by adding 4% paraformaldehyde in PB solution (at RT). Excess paraformaldehyde solution was aspirate out. The fixed cells were washed three times gently with cold DPBS (Bulbecco-modified phosphate buffered saline). Then 0.12% Triton X-100 (diluted in DPBS) was added onto the cells at RT and incubated for 20 minutes at RT. Excess Triton X solution was aspirated out and cells were washed three times (gently) with chilled DPBS. Cells were blocked with 10% horse serum (HS) (diluted in DPBS) for 20 minutes at RT. Unbound blocking agent was washed off. The primary antibody diluted in 1% HS in DPBS was added. Generally a dilution of 1:250 was used. The antibody, which is raised in rabbit recognizes Phospho-Thr202/Tyr204 of ERK/MAPK, which indicates translocation of activated ERK/MAPK into the […] compartment.
Incubation with the primary antibody was done for overnight at 4° C. Unbound primary antibody was washed off, and at this stage the plate can be stored at 4° C. Washed three times at RT with cold DPBS. Added Alexa Fluor conjugated goat anti rabbit (diluted 1:200 in DPBS) and incubated at RT for 1-2 hr. This reagent and this step is light sensitive to. For best results the reagent and this step of the procedure should be kept away from the light. […]

fmr1 KO mice = details: mouse, in vivo; cited from earlier work
adults with FXS = details: single dose, cited from earlier work
[2] = test system: persons with FXS and comorbid ASD; details: 6 persons; cited from earlier work
[3] = test system: cerebellar granule cells from fmr1 knockout mice; details: cited from earlier work
ERK1/2 = details: adults with FXS; cited from earlier work

Structure (SMILES): NC[C@H](CC(=O)O)c1ccc(Cl)cc1 (single isomer, unassigned) [STX209]
- ABC Irritability (ABC-I) subscale, primary outcome measure (subjects with FXS; 63 subjects aged 6 to 40 years): not associated with improvement on the primary outcome measure
- ABC-SW and VABS Socialization, post-hoc 27 subject subset with baseline ABC-SW >8 (subjects with FXS; human, in vivo): significant STX209-associated improvement
- Social Avoidance scale (ABC-SA), post-hoc analysis (subjects with FXS; human, in vivo): significant group-wide improvement
- subjects reporting sedation (subjects with FXS; human, in vivo): 8%
- tolerability (subjects with FXS; human, in vivo): well tolerated
- effect on protein synthesis and dendritic spines (fmr1 knockout mice): correction of aberrant protein synthesis and dendritic spine abnormalities

Structure (SMILES): COC(=O)N1CC[C@@H]2[C@H]1CCC[C@@]2(O)C#Cc1cccc(C)c1 [AFQ056]
- group treatment effect (males with FXS; 30 males with FXS aged 18 to 35 years): not associated with significant group treatment effect
- response in 7 subject subset with full fmr1 gene methylation (males with FXS; ABC subscales and total, CGI-I, Visual Analogue Scale, Repetitive Behavior Scale-Revised): significant response to AFQ056 compared to placebo

Structure (SMILES): Cc1cccc(C#Cc2ccccc2)n1 [MPEP, 2-methyl-6-(phenylethynyl)-pyridine]
- effect on phenotypic characteristics of the fmr1 mouse model (mGluR5): reverse phenotypic characteristics, including audiogenic seizures, altered pre-pulse inhibition (PPI), and open field hyperactivity

Structure (SMILES): Cc1nc(C#Cc2cccnc2)cs1 [MTEP, 3-((2-Methyl-4-thiazolyl)ethynyl)pyridine]
- alcohol withdrawal associated anxiety effects [1]: reduce alcohol withdrawal associated anxiety effects
- alcohol intake (alcohol intake): reduced alcohol intake

Structure (SMILES): CC/C(=C(\c1ccccc1)c1ccc(OCCN(C)C)cc1)c1ccccc1 [Tamoxifen]
- ERK activation and translocation of ERK/MAPK (positive control) (ERK/MAPK): induces ERK activation; also recorded: cytoplasmic localization of ERK 1/2

Structure (SMILES): CC(=O)[C@H]1CC[C@H]2[C@@H]3CC[C@H]4C[C@H](O)CC[C@]4(C)[C@H]3C(=O)C[C@]12C [alphaxalone]
- effect on phenotype of fmr1 KO mice (fmr1 KO mice): reductions in anxiety and rescue of audiogenic seizures

Structure (SMILES): CN1CC(=O)NC1=NC(=O)Nc1cccc(Cl)c1 [fenobam]
- subjects experiencing mild sedation (adults with FXS; 12 adults with FXS): 25%
- subjects who experienced clinical benefit (adults with FXS; 12 adults with FXS, reductions in hyperactivity and anxiety): 75%
- pharmacokinetics (adults with FXS): variable pharmacokinetics
- tolerability (adults with FXS): good tolerability

Structure (SMILES): Oc1noc2c1CCNC2 [gaboxadol]
- effect on phenotype of fmr1 KO mice (fmr1 KO mice): restored neuron excitability deficits in the amygdala, reduced hyperactivity, and reduced PPI deficits

Structure (SMILES): CC12CC3CC(C)(C1)CC(N)(C3)C2 [memantine]
- subjects who developed treatment limiting irritability [2]: Two
- subjects with clinical response (CGI-I very much improved or much improved) [2]: 67%
- dendritic spine development and synapse formation [3]: correction of dendritic spine development and synapse formation

Structure (SMILES): Nc1nc2ccc(OC(F)(F)F)cc2s1 [riluzole]
- ERK1/2 activation rates (ERK1/2): modifies ERK1/2 activation rates

Structure (SMILES): NCCS(=O)(=O)O [taurine]
- effect on phenotype of fmr1 KO mice (fmr1 KO mice): Improvements in memory acquisition and retention
